# Experiments:
# [1] = tested on: tumor inflammation-related adverse effects; conditions: preliminary data; confirmed PR and SD observed in patients given prophylaxis
# [2] = set-up: species or system human; conditions: in vivo
# Experimental: (§1) Methods: In 2 ongoing dose-escalation phase I studies, CEA-TCB is given as monotherapy IV QW (S1) or in combination (QW) with atezolizumab 1200 mg Q3W (S2) in patients with advanced CEA positive (≥20% of tumor cells expressing moderate or high) solid tumors. In S1, 80 patients (70 CRC) were treated at dose levels of 0.05-600 mg; in S2, 45 patients (35 CRC) at 5-160 mg (data cut-off 3 Mar. 2017). In addition biomarker analysis and PK assays were conducted.
# [3] = tested on: intratumoral T cells; assay: Biomarker analysis of on-treatment tumor biopsies; format: in vivo, human
# Experimental: as §1
# [4] = tested on: IL-6; assay: Biomarker analysis: IL-6 after administration; format: in vivo, human; conditions: most patients; after the first administration
# Experimental: as §1
# [5] = tested on: tumor cells; conditions: preclinically; increased intratumoral T-cell infiltration and activation, T-cell-mediated tumor cell killing, PD-L1/PD-1 upregulation; cited from earlier work
# [6] = tested on: advanced CEA positive solid tumors; format: in vivo, human
# Experimental: In S1, 80 patients (70 CRC) were treated at dose levels of 0.05-600 mg; in S2, 45 patients (35 CRC) at 5-160 mg (data cut-off 3 Mar. 2017). In addition biomarker analysis and PK assays were conducted.
Molecule,effect of prophylactic steroid doses on anti-tumor activity of CEA-TCB monotherapy or combination with atezolizumab [1],effect of ADA on drug clearance ([2]; human),PK linearity [2],"increase in Ki67+ T cells as compared to baseline ([3]; S1, doses ≥60 mg, OT biopsies, P=0.035, without dose-dependence) [fold]",intratumoral CD8 T cells ([3]; on-treatment),IL-6 change [4],preclinical antitumor activity [5],"tumor reduction of −10% to −30% (stable disease), share of patients ([6]; S1 monotherapy, doses ≥60 mg, MSS CRC patients, 4 patients) [%]","confirmed partial response (PR; RECIST v1.1), share of CRC patients ([6]; S1 monotherapy, doses ≥60 mg, two of 31 evaluable CRC patients, both MSS) [%]","metabolic PR (FDG PET; EORTC criteria), share of CRC patients ([6]; S1 monotherapy, weeks 4-6, 9 patients) [%]","MTD (maximum tolerated dose) ([6]; human, in vivo, iv) [mg]",patients with dose limiting toxicities (DLTs) ([6]; in vivo),related adverse event: diarrhea ([6]; in vivo) [%],related adverse event: infusion-related reactions (IRRs) ([6]; in vivo) [%],related adverse event: pyrexia ([6]; in vivo) [%],"antitumor activity in advanced CRC ([6]; monotherapy, during dose escalation)"
C[C@]12C=CC(=O)C=C1CC[C@@H]1[C@@H]2C(=O)C[C@@]2(C)[C@H]1CC[C@]2(O)C(=O)CO [prednisone],did not impair the anti-tumor activity,,,,,,,,,,,,,,,
CEA-TCB: novel T-cell bispecific antibody targeting CEA on tumor cells and CD3 on T cells; polypeptides of SEQ ID NO: 25-28,,ADA increase CEA-TCB drug clearance,almost linear PK,3.6,On-treatment increases,increases in IL-6,potent antitumor activity,13,6,29,< 600,Five,40,55,58,Evidence of antitumor activity
